Patent US20260285816A1, “Piperazinyl-Modified Quinazolinyl-Aryl Urea Derivative, And Preparation Method And Use Thereof” (Guangxi Normal University, priority 2025, published 2026)
Like-named read-outs stand apart in the source and are kept apart here.

Key:
Assay type in all cases: cell-based, human
5637 cells = assay: CCK-8 anti-proliferative assay, 5637; settings: Homo sapiens, co-incubated 48 h, read-out: Anti-proliferative activity (IC50 ± standard deviation) 5637
How it was run: (§1)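 Anti-proliferative effect is measured by CCK-8 after compound exposure at nine final concentrations between 1 and 30 μM. Treatment starts once seeded cells (5,000/well) reach 70% confluency at 37° C., 5% CO2.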

UM-UC-3 cells = assay: CCK-8 anti-proliferative assay, UM-UC-3; settings: Homo sapiens, UMUC3, co-incubated 48 h, read-out: Anti-proliferative activity (IC50 ± standard deviation) UM-UC-3
Experimental: (§2) The obtained quinazolinyl-aryl urea derivatives were screened for compounds with optimal activity using the following method.
(§3) Experimental Procedure for Anti-Proliferative Activity Evaluation: The CCK-8 assay was employed. Cells in logarithmic growth phase were harvested, adjusted to appropriate density, and uniformly seeded into 96-well plates using a multichannel pipette (180 μL cell suspension containing complete medium per well, 5,000 cells/well). Blank control wells (containing basal medium, CCK-8 solution, and DMSO only) were set. Cells were incubated at 37° C. under 5% CO2. After 70% confluency was reached, test compounds (target compounds/positive controls) were added at final concentrations of 1, 2, 4, 6, 8, 12, 16, 24, and 30 μM (3 repeated wells per concentration). Compounds were pre-dissolved in DMSO, sterilized, and diluted with medium before adding 20 μL/well. After co-incubation for designated durations, 10 μL CCK-8 solution was added per well followed by 1-4 h incubation (different cells have different incubation times). […] Inhibition rates were calculated as: (ODcontrol−ODtreatment)/ODcontrol×100%. Median inhibitory concentrations (IC50 values) were derived using Origin v8.0 software.

HeLa cells = assay: CCK-8 anti-proliferative assay, HeLa; settings: Homo sapiens, HeLa, co-incubated 48 h, read-out: Anti-proliferative activity (IC50 ± standard deviation) HeLa
Experimental: as §2, §3

PANC-1 cells = assay: CCK-8 anti-proliferative assay, PANC-1; settings: Homo sapiens, PANC-1, co-incubated 48 h, read-out: Anti-proliferative activity (IC50 ± standard deviation) PANC-1
How it was run: (§4)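 Cells seeded at 5,000/well were grown at 37° C. under 5% CO2 to 70% confluency, then exposed in triplicate to 1–30 μM compound (1, 2, 4, 6, 8, 12, 16, 24, 30 μM) for designated durations. CCK-8 was added for 1–4 h, OD read at 450 nm, and IC50 derived from inhibition versus control.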

MG-63 cells = assay: CCK-8 anti-proliferative assay, MG-63; settings: Homo sapiens, MG-63, co-incubated 48 h, read-out: Anti-proliferative activity (IC50 ± standard deviation) MG-63
Excerpt: (§5) The obtained quinazolinyl-aryl urea derivatives were screened for compounds with optimal activity using the following method. All cell lines employed in this experiment were of human origin, including: bladder cancer cells: J82, UM-UC-3, T24, 5637, pancreatic cancer cells: BxPC-3, PANC-1, osteosarcoma cells: 143B, MG-63, cervical cancer cells: HeLa, breast cancer cells: MCF-7, NSCLC cells: A549, hepatoblastoma cells: Hep G2, and ovarian cancer cells: SK-OV-3, as well as normal cell lines: immortalized ureteral epithelial cells (SV-HUC-1), embryonic lung fibroblasts (WI-38).
(§6) Experimental Procedure for Anti-Proliferative Activity Evaluation: The CCK-8 assay was employed. Cells in logarithmic growth phase were harvested, adjusted to appropriate density, and uniformly seeded into 96-well plates using a multichannel pipette (180 μL cell suspension containing complete medium per well, 5,000 cells/well). Blank control wells (containing basal medium, CCK-8 solution, and DMSO only) were set. Cells were incubated at 37° C. under 5% CO2. After 70% confluency was reached, test compounds (target compounds/positive controls) were added at final concentrations of 1, 2, 4, 6, 8, 12, 16, 24, and 30 μM (3 repeated wells per concentration). Compounds were pre-dissolved in DMSO, sterilized, and diluted with medium before adding 20 μL/well. After co-incubation for designated durations, 10 μL CCK-8 solution was added per well followed by 1-4 h incubation (different cells have different incubation times). The reaction was terminated, and OD (optical density) values at 450 nm were measured using a microplate reader. Inhibition rates were calculated as: (ODcontrol−ODtreatment)/ODcontrol×100%. Median inhibitory concentrations (IC50 values) were derived using Origin v8.0 software.

[1] = test system: immortalized ureteral epithelial cells (SV-HUC-1); assay: CCK-8 anti-proliferative assay, normal cells SV-HUC-1; settings: Homo sapiens, SV-HUC1, normal cells, co-incubated 48 h, read-out: Anti-proliferative activity (IC50 ± standard deviation) SV-HUC-1
Experimental: as §2, §3

MCF-7 cells = assay: CCK-8 anti-proliferative assay, MCF-7; settings: Homo sapiens, MCF7, co-incubated 48 h, read-out: Anti-proliferative activity (IC50 ± standard deviation) MCF-7
How it was run: as §1

143B cells = assay: CCK-8 anti-proliferative assay, 143B; settings: Homo sapiens, 143B, co-incubated 48 h, read-out: Anti-proliferative activity (IC50 ± standard deviation) 143B
Excerpt: as §5, §6

BxPC-3 cells = assay: CCK-8 anti-proliferative assay, BxPC-3; settings: Homo sapiens, BXPC-3, co-incubated 48 h, read-out: Anti-proliferative activity (IC50 ± standard deviation) BxPC-3
How it was run: as §4

Hep G2 cells = assay: CCK-8 anti-proliferative assay, Hep G2; settings: Homo sapiens, HepG2, co-incubated 48 h, read-out: Anti-proliferative activity (IC50 ± standard deviation) Hep G2
How it was run: as §4

T24 cells = assay: CCK-8 anti-proliferative assay, T24; settings: Homo sapiens, T-24, co-incubated 48 h, read-out: Anti-proliferative activity (IC50 ± standard deviation) T24
How it was run: as §4

J82 cells = assay: CCK-8 anti-proliferative assay, J82; settings: Homo sapiens, J82, co-incubated 48 h, read-out: Anti-proliferative activity (IC50 ± standard deviation) J82
Experimental: as §2, §3

SK-OV-3 cells = assay: CCK-8 anti-proliferative assay, SK-OV-3; settings: Homo sapiens, SK-OV-3, co-incubated 48 h, read-out: Anti-proliferative activity (IC50 ± standard deviation) SK-OV-3
Experimental: as §2, §3

A549 cells = assay: CCK-8 anti-proliferative assay, A549; settings: Homo sapiens, A549, co-incubated 48 h, read-out: Anti-proliferative activity (IC50 ± standard deviation) A549
How it was run: as §1

[2] = test system: embryonic lung fibroblasts (WI-38); assay: CCK-8 anti-proliferative assay, normal cells WI-38; settings: Homo sapiens, read-out: Anti-proliferative activity (IC50 ± standard deviation) WI-38
Excerpt: as §5, §6

[3] = WI-38, Table 9, co-incubated 48 h
[4] = WI-38, Table 13, co-incubated 48 h

Row | Structure (SMILES) | IC50 (5637 cells; Table 6) [µM] | IC50 (UM-UC-3 cells; Table 6) [µM] | IC50 (HeLa cells; Table 8) [µM] | IC50 (PANC-1 cells; Table 7) [µM] | IC50 (MG-63 cells; Table 7) [µM] | IC50 ([1]; Table 9) [µM] | IC50 (MCF-7 cells; Table 8) [µM] | IC50 (143B cells; Table 7) [µM] | IC50 (BxPC-3 cells; Table 7) [µM] | IC50 (Hep G2 cells; Table 8) [µM] | IC50 (T24 cells; Table 6) [µM] | IC50 (J82 cells; Table 6) [µM] | IC50 (SK-OV-3 cells; Table 9) [µM] | IC50 (A549 cells; Table 8) [µM] | IC50 [2, 3] [µM] | IC50 (5637 cells; Table 10) [µM] | IC50 (UM-UC-3 cells; Table 10) [µM] | IC50 (HeLa cells; Table 12) [µM] | IC50 (PANC-1 cells; Table 11) [µM] | IC50 (MG-63 cells; Table 11) [µM] | also measured
1 | COc1cc2ncnc(NCc3cccc(NC(=O)Nc4ccc(F)c(C(F)(F)F)c4)c3)c2cc1OCCCCCCN1CCN(CCN2CCOCC2)CC1 [Compound 8-1q] | 5.78 ± 0.69 | 6.25 ± 0.88 | 6.32 ± 0.37 | 19.5 ± 1.53 | 5.81 ± 0.63 | 7.61 ± 0.41 | 6.64 ± 0.52 | 4.57 ± 0.44 | 7.78 ± 0.53 | 7.09 ± 0.35 | 6.83 ± 0.87 | 4.26 ± 0.31 | 8.76 ± 0.74 | 10.9 ± 0.67 | 7.97 ± 0.63 | – | – | – | – | – | –
2 | COc1cc2ncnc(NCc3cccc(NC(=O)Nc4ccc(Cl)c(C(F)(F)F)c4)c3)c2cc1OCCCCCCN1CCN(CCN2CCOCC2)CC1 [Compound 8-1r] | 3.59 ± 0.16 | 6.14 ± 0.53 | 5.76 ± 0.57 | 11.9 ± 0.94 | 5.31 ± 0.46 | 7.02 ± 0.53 | 4.12 ± 0.15 | 5.41 ± 0.39 | 7.39 ± 0.62 | 5.59 ± 0.45 | 3.91 ± 0.34 | 6.33 ± 0.61 | 8.51 ± 0.87 | 8.62 ± 0.55 | 7.89 ± 0.66 | – | – | – | – | – | –
3 | COc1cc2ncnc(NCc3cccc(NC(=O)Nc4cc(C(F)(F)F)cc(C(F)(F)F)c4)c3)c2cc1OCCCCCCN1CCN(CCN2CCOCC2)CC1 [Compound 8-1s, N-(3-(((7-methoxy-6-((6-(4-(2-morpholinoethyl)piperazin-1-yl)hexyl)oxy)quinazolin-4-yl)amino)methyl)phenyl)-N′-(3,5-bis(trifluoromethyl)phenyl)urea] | 5.93 ± 0.44 | 6.72 ± 0.53 | 6.81 ± 0.45 | 12.7 ± 0.71 | 7.17 ± 0.52 | 7.31 ± 0.35 | 10.3 ± 0.68 | 4.95 ± 0.69 | 7.31 ± 0.76 | 4.55 ± 0.47 | 6.95 ± 0.51 | 5.63 ± 0.54 | 7.29 ± 0.66 | 12.6 ± 0.48 | 7.71 ± 0.54 | – | – | – | – | – | –
4 | COc1cc2ncnc(NCc3cccc(NC(=O)NC4CCCCC4)c3)c2cc1OCCCCCCN1CCN(CCN2CCOCC2)CC1 [Compound 8-1v, N-(3-(((7-Methoxy-6-((6-(4-(2-morpholinoethyl)piperazin-1-yl)hexyl)oxy)quinazolin-4-yl)amino)methyl)phenyl)-N′-cyclohexylurea] | 11.2 ± 0.97 | 19 ± 0.34 | > 30 | > 30 | 15.6 ± 0.92 | > 30 | > 30 | 22.4 ± 1.63 | 16.8 ± 1.25 | 10.6 ± 0.94 | 15.8 ± 0.89 | 13.9 ± 0.95 | > 30 | 16.5 ± 0.77 | 15.4 ± 0.88 | – | – | – | – | – | –
5 | COc1cc2ncnc(NCc3cccc(NC(=O)Nc4ccccc4)c3)c2cc1OCCCCCCN1CCC(CN2CCN(c3ccccn3)CC2)CC1 [Compound 8-2a, N-(3-(((7-methoxy-6-((6-(4-((4-(pyridin-2-yl)piperazin-1-yl)methyl)piperidin-1-yl)hexyl)oxy)quinazolin-4-yl)amino)methyl)phenyl)-N′-phenylurea] | – | – | – | – | – | – | – | – | – | – | – | – | – | – | – | 16.2 ± 0.77 | 25.8 ± 1.81 | > 30 | > 30 | 17.4 ± 1.38 | IC50 ([1]; Table 13): 26.4 ± 1.69 µM; IC50 (MCF-7 cells; Table 12): 26.3 ± 1.46 µM; IC50 (143B cells; Table 11): > 30 µM; IC50 (BxPC-3 cells; Table 11): > 30 µM; IC50 (Hep G2 cells; Table 12): 25.7 ± 1.81 µM; IC50 (T24 cells; Table 10): 15.8 ± 0.92 µM; IC50 (J82 cells; Table 10): > 30 µM; IC50 (SK-OV-3 cells; Table 12): 22.4 ± 1.33 µM; IC50 (A549 cells; Table 13): > 30 µM; IC50 [2, 4]: 17.6 ± 0.72 µM
6 | COc1cc2ncnc(NCc3cccc(NC(=O)Nc4ccccc4C)c3)c2cc1OCCCCCCN1CCC(CN2CCN(c3ccccn3)CC2)CC1 [Compound 8-2b, N-(3-(((7-methoxy-6-((6-(4-((4-(pyridin-2-yl)piperazin-1-yl)methyl)piperidin-1-yl)hexyl)oxy)quinazolin-4-yl)amino)methyl)phenyl)-N′-(2-methylphenyl)urea] | – | – | – | – | – | – | – | – | – | – | – | – | – | – | – | 4.79 ± 0.43 | 7.03 ± 0.37 | 5.72 ± 0.41 | 14.5 ± 0.94 | 6.44 ± 0.81 | IC50 ([1]; Table 13): 8.74 ± 0.63 µM; IC50 (MCF-7 cells; Table 12): 7.25 ± 0.66 µM; IC50 (143B cells; Table 11): 6.47 ± 0.34 µM; IC50 (BxPC-3 cells; Table 11): 5.92 ± 0.38 µM; IC50 (Hep G2 cells; Table 12): 4.04 ± 0.28 µM; IC50 (T24 cells; Table 10): 6.96 ± 0.85 µM; IC50 (J82 cells; Table 10): 6.86 ± 0.52 µM; IC50 (SK-OV-3 cells; Table 12): 6.21 ± 0.55 µM; IC50 (A549 cells; Table 13): 5.47 ± 0.22 µM; IC50 [2, 4]: 9.02 ± 0.41 µM
